The record followed here is ChEMBL document CHEMBL4433254 (Bioorg Med Chem Lett, 2019).

≈ marks a conversion by molar mass, not a printed value.

One data set addresses T1, CYP11B1 (Homo sapiens, UniProt P15538).
T1 sequence (P15538 whole entry): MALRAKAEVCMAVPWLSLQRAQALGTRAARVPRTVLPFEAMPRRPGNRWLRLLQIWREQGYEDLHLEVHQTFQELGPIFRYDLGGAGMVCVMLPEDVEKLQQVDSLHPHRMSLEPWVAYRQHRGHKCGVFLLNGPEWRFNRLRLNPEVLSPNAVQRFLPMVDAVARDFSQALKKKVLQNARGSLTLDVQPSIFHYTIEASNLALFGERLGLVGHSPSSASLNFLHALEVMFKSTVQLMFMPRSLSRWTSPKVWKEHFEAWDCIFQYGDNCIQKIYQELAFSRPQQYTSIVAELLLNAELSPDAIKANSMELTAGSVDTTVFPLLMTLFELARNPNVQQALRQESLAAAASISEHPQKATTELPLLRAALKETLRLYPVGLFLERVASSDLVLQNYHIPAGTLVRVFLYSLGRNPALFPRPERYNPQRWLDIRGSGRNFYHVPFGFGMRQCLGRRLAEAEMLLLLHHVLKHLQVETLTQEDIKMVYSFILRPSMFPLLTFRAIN
Briefly: Inhibition of CYP11B1 (unknown origin).

The species named for data set [1] is Homo sapiens. Kind of data set: Selectivity index, ratio of IC50 for CYP11B1 (unknown origin) to ratio of IC50 for CYP11B2 (unknown origin).
Data set [2] is described as follows: Partition coefficient, log P of the compound. Particulars: octanol/water.
Data set [3] is described as follows: Lipophilicity, log D of compound at pH 7.4. The settings on record: buffer.
In the next data set the test system is Candida albicans. Briefly: Antifungal activity against Candida albicans. In kind it is functional.
The target of data set [4] is T2, Cytochrome P450 11B2, mitochondrial (Homo sapiens, UniProt P19099).
T2 sequence (P19099 whole entry): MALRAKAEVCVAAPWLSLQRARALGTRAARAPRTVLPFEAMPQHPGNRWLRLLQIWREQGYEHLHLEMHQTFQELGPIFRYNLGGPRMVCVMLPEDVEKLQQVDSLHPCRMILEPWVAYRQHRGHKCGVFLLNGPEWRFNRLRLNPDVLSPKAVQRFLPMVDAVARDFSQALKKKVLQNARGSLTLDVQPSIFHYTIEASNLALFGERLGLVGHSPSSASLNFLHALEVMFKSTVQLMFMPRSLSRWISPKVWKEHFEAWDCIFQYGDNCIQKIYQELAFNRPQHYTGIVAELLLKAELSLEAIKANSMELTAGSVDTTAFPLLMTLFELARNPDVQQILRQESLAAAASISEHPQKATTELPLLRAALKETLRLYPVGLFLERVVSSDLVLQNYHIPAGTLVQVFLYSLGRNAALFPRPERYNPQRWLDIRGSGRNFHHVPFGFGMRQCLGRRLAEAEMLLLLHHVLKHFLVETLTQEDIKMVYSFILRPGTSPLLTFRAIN
Kind of data set: Inhibition of human CYP11B2 expressed in hamster fibroblasts using deoxycorticosterone as substrate.

For data set [5], the target named is T3, Cytochrome P450 11B1, mitochondrial (Homo sapiens, UniProt P15538).
T3 sequence (P15538 whole entry): T1 sequence (P15538 whole entry)
Briefly: Inhibition of human CYP11B1 expressed in hamster fibroblasts using deoxycorticosterone as substrate.

Data set [6] is filed under the species Homo sapiens. Briefly: Selectivity index, ratio of IC50 for human CYP11B1 expressed in hamster fibroblasts to ratio of IC50 human CYP11B2 expressed in hamster fibroblasts.

The term IC50 denotes the point on the concentration scale where inhibition reaches its midpoint. For the molecule `Cc1nnc2n1-c1c(F)cc(-c3cccnc3)cc1CC2`, half-maximal inhibition against CYP11B1 (IC50) required 17 µM. Moreover, the Ratio IC50 in the data set listed under Homo sapiens [1] stood at 272.
A word on the logP: it is the decadic logarithm of the partition coefficient of the neutral form, usually between octanol and water. A higher logP goes with a more lipophilic compound. Broadly, the logD is the decadic logarithm of the distribution of all forms, ionised or not, between an organic phase and buffer at a given pH. Higher therefore signals higher lipophilicity. A word on the MIC90: it is the lowest concentration that inhibits either 90% of growth or 90% of the strains tested, depending on the study. Low values mean higher susceptibility, high ones lower susceptibility. The molecule `Clc1ccccc1C(c1ccccc1)(c1ccccc1)n1ccnc1` [CLOTRIMAZOLE] had a logP in data set [2] of 5.05. The log distribution coefficient (logD) in data set [3] was 5.05. For the same molecule, in the data set on Candida albicans, the MIC90 is 1 µg/mL (≈ 2.9 µM).
For the molecule `CC(=O)N1CCN(c2ccc(OCC3COC(Cn4ccnc4)(c4ccc(Cl)cc4Cl)O3)cc2)CC1` (stereo not given) [KETOCONAZOLE], the MIC90 against Candida albicans was determined as 0.25 µg/mL (≈ 0.47 µM).
In the case of `CCC(=O)N1CCc2cc(-c3cccnc3)ccc21`, the results for the half-inhibitory concentration (IC50) in data set [4] and in data set [5] were 0.228 µM and 4.74 µM, respectively. In addition, the Ratio IC50 in the data set filed under Homo sapiens [6] stood at 21.
Turning to `Clc1ccc(COC(Cn2ccnc2)c2ccc(Cl)cc2Cl)cc1` (stereo not given) [ECONAZOLE], the logP in data set [2] is on record as 5.25. This molecule gave a logD in data set [3] of 5.25. The molecule also gave an MIC90 with Candida albicans of 2 µg/mL (≈ 5.24 µM).
For the molecule `Fc1cc(-c2cccnc2)cc2c1-n1cnnc1CC2`, the IC50 against CYP11B1 was determined as 16.1 µM. The Ratio IC50 in the data set listed under Homo sapiens [1] turned out to be 94.
For `Cc1nnc2n1-c1cc(F)c(-c3cccnc3)cc1CC2` the same measures were 12.6 µM and 96.
For `OC(Cn1cncn1)(Cn1cncn1)c1ccc(F)cc1F` [FLUCONAZOLE], the MIC90 with Candida albicans was 1 µg/mL (≈ 3.27 µM).
Same read-out and setting: for `Clc1ccc(COC(Cn2ccnc2)c2ccc(Cl)cc2Cl)c(Cl)c1` (stereo not given) [MICONAZOLE] the value was 0.5 µg/mL (≈ 1.2 µM).
For the molecule `Fc1cc2c(cc1-c1cccnc1)CCc1nncn1-2`, inhibition on CYP11B1 was half-maximal at 7.9 µM (IC50). Also, in the data set listed under Homo sapiens [1], the Ratio IC50 stood at 32.
